This note sets out measurements from patent US9376396B2, “Acylaminocycloalkyl compounds suitable for treating disorders that respond to modulation of dopamine D3 receptor” (AbbVie Deutschland GmbH & Co. KG, priority 2012, dated 2016).

For data set [1], the target named is T1, human dopamine D3 receptors (Homo sapiens, UniProt P35462).
T1 construct: expressed in transfected cells; host or cells: HEK-293
As to the kind of experiment: Receptor binding study, dopamine D3 receptor ([125I]-iodosulpride displacement). To be noted: membranes of HEK-293 cells, 0.1 nM [125I]-iodosulpride, 25° C., 60 minutes. The method, then: (§1) The substance to be tested was either dissolved in methanol/Chremophor® (BASF SE) or in dimethyl sulfoxide and then diluted with water to the desired concentration.
(§2) Each assay mixture was run in triplicate. • The incubation buffer contained 50 mM tris, 120 mM NaCl, 5 mM KCl, 2 mM CaCl2, 2 mM MgCl2 and 0.1% bovine serum albumin, 10 μM quinolone and 0.1% ascorbic acid (prepared fresh daily). […] Each assay mixture was run in triplicate. • The incubation buffer contained 50 mM tris, 120 mM NaCl, 5 mM KCl, 2 mM CaCl2, 2 mM MgCl2 and 0.1% bovine serum albumin. The buffer was adjusted to pH 7.4 with HCl. c) Measurement and Analysis: • After having been incubated at 25° C. for 60 minutes, the assay mixtures were filtered through a Whatman GF/B glass fiber filter under vacuum using a cell collecting device. The filters were transferred to scintillation viols using a filter transfer system. After 4 ml of Ultima Gold® (Packard) have been added, the samples were shaken for one hour and the radioactivity was then counted in a Beta-Counter (Packard, Tricarb 2000 or 2200CA).

The target in data set [2] is T2, human dopamine D2L receptors (long isoform) (Homo sapiens, UniProt P14416).
T2 construct: expressed in transfected cells; host or cells: HEK-293
As to the kind of experiment: Receptor binding study, dopamine D2L receptor ([125I]iodospiperone displacement), selectivity vs D3. To be noted: selectivity ratio, HEK-293 membranes. The method, then:
as §1, §2

The nature of data set [3]: Determination of the microsomal half-life / microsomal clearance, rat. To be noted: rat liver microsomes, 0.5 μM test substance, 0.25 mg microsomal protein/ml, NADPH, 37° C. In kind it is in vitro ADME. The method, then:
(§3) The metabolic stability of the compounds of the invention was determined in the following assay.
(§4) The test substances were incubated in a concentration of 0.5 μM as follows:
(§5) 0.5 μM test substance are preincubated together with liver microsomes from different species (from rat, human or other species) (0.25 mg of microsomal protein/ml) in 0.05 M potassium phosphate buffer of pH 7.4 in microtiter plates at 37° C. for 5 min. The reaction is started by adding NADPH (1 mg/mL). After 0, 5, 10, 15, 20 and 30 min, 50 μl aliquots are removed, and the reaction is immediately stopped and cooled with the same volume of acetonitrile. The samples are frozen until analyzed. The remaining concentration of undegraded test substance is determined by MSMS. The half-life (T½) is determined from the gradient of the signal of test substance/unit time plot, it being possible to calculate the half-life of the test substance, assuming first order kinetics, from the decrease in the concentration of the compound with time. The microsomal clearance (mCl) is calculated from mCl=ln 2/T½/(content of microsomal protein in mg/ml)×1000 [ml/min/mg] (modified from references: Di, The Society for Biomoleculur Screening, 2003, 453-462; Obach, DMD, 1999 vol 27. N 11, 1350-1359).
For orientation: Liver microsomes are a subcellular fraction often used to study metabolism.

Data set [4] is described as follows: Determination of the microsomal half-life / microsomal clearance, human. In kind it is in vitro ADME. To be noted: human liver microsomes, 0.5 μM test substance, 0.25 mg microsomal protein/ml, NADPH, 37° C. On the procedure:
as §3, §4, §5

A further data set deals with T3, hERG cardiac K+ channel (Homo sapiens, UniProt Q12809).
T3 construct: expressed in transfected cells; host or cells: HEK-293
As to the kind of experiment: Blocking the hERG channel ([3H]dofetilide displacement). The data set is classed as binding. To be noted: membrane homogenate from HEK 293 cells expressing hERG. The method, then: The binding affinity of test drugs for the hERG cardiac K^+ channel was determined by their ability to displace tritiated dofetilide (a class III antiarrhythmic drug and potent hERG blocker) in membrane homogenates from HEK-293 cells heterogeneously expressing the hERG channel. The assay was performed as previously described G. J. Diaz et al., Journal of Pharmacological and Toxicological Methods, 50 (2004), 187-199). For this, drug dilutions were prepared from 10 mM DMSO stocks and the following were added to a 96-well polystyrene plate (Perkin-Elmer Optiplate): 20 μl of assay binding buffer (for total bounds), or 1 μM astemizole (for non-specific bounds), or test drug, 50 μl of [^3H]dofetilide (20 nM, ˜80 Ci/mmol specific activity), and 130 μl of membrane homogenate from HEK 293 cells stably transfected with hERG K^+ channels (final protein concentration of 30 μg per well). The plates were incubated at ambient temperature for 45 min, aspirated onto GF/B filter plates (Perkin-Elmer), and washed with 2 ml of cold wash buffer. After allowing the plates to dry, 50 μl of scintillant (Perkin-Elmer MicroScint 20) were added to each well and the radioactivity was counted in a Perkin-Elmer Topcount NXT scintillation counter. IC50 determinations were calculated from competition curves using 6 drug concentrations, half-log apart, starting at a high concentration of 100 μM (final assay DMSO concentration=1%) using a four-parameter logistic equation. The results are given as IC50 value.
In general terms: Block of hERG is tested as a sign of cardiac risk.

T3 sequence (Q12809 whole entry): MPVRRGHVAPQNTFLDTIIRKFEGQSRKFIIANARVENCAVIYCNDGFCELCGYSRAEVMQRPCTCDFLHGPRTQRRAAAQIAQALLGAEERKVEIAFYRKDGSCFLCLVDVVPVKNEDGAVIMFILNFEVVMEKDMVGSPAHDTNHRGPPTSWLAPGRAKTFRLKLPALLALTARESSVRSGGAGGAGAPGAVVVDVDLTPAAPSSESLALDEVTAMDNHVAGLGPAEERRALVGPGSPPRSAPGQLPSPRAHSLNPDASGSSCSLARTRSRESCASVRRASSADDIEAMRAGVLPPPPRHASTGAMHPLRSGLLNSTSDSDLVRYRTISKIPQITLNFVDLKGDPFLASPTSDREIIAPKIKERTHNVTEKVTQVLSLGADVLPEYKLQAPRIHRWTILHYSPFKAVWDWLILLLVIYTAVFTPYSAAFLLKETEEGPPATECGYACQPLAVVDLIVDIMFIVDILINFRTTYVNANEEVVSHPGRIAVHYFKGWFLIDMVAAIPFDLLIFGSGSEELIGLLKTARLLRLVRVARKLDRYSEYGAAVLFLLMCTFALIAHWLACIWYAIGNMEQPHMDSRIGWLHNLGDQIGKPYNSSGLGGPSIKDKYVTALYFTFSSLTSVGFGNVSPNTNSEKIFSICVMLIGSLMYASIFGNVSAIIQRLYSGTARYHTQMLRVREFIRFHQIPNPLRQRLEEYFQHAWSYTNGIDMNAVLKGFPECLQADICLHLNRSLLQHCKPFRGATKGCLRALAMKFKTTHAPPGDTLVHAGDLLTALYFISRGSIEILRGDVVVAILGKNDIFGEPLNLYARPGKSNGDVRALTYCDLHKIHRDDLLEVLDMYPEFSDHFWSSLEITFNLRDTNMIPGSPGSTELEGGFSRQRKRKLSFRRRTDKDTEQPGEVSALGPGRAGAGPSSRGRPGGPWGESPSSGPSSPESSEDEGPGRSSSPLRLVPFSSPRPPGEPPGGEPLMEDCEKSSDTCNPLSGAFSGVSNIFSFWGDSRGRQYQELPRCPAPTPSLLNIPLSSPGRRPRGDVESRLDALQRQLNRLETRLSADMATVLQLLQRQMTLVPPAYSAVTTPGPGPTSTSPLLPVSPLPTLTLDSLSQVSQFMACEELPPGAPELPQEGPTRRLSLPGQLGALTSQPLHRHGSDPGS
T2 sequence (P14416 whole entry, canonical isoform): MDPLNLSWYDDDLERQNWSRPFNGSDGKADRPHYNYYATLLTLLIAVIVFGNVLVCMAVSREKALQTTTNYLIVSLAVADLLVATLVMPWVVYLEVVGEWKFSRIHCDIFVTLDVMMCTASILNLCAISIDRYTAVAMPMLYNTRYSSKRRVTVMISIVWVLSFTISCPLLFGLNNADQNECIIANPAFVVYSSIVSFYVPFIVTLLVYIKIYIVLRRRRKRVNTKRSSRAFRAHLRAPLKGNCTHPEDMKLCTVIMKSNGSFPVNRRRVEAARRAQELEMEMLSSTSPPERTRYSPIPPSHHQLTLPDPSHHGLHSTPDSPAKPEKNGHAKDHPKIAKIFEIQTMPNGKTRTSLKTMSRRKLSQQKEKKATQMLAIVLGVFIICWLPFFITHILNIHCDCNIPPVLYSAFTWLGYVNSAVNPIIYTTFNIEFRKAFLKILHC
T1 sequence (P35462 whole entry): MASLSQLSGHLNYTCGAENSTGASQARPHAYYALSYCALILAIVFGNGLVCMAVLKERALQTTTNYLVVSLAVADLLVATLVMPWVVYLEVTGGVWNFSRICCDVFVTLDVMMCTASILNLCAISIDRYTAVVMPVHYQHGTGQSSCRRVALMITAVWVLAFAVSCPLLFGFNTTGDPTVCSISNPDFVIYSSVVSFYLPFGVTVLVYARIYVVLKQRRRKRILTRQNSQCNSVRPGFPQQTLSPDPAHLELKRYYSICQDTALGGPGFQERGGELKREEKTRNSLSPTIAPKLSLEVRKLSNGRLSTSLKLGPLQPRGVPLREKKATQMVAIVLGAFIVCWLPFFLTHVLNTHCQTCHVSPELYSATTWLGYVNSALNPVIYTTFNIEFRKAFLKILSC

A word on the Ki: it is the equilibrium dissociation constant of an inhibitor or competing ligand from its target. A high value points to a looser hold on the target. Broadly, the IC50 is the concentration needed to halve the response being measured. Higher therefore signals lower potency. Molecule `COCCc1cc(N2CCN(CC[C@H]3CC[C@H](NC(C)=O)CC3)CC2)nc(C(C)(C)C)n1` [Compound 1, trans-N-[4-(2-{4-[2-tert-Butyl-6-(2-methoxy-ethyl)-pyrimidin-4-yl]-piperazin-1-yl}-ethyl)-cyclohexyl]-acetamide] showed a Ki in data set [1] of under 10 nM. Also, the “D2/D3 (Ki (D2L)/Ki (D3))” value in data set [2] is “+++ (+++>50)”. Moreover, the “Rat mCl” value in data set [3] is given as “+ (+: 20-120 μl min^−1 mg^−1)”. Moreover, the “Human mCl” value in data set [4] is on record as “+ (+: 20-120 μl min^−1 mg^−1)”. This molecule also had an IC50 at hERG cardiac K+ channel of over 10000 nM.
`COCc1cc(N2CCN(CC[C@H]3CC[C@H](NC(C)=O)CC3)CC2)nc(C(C)(C)C)n1` [Compound 2, trans-N-[4-(2-{4-[2-tert-butyl-6-(methoxymethyl)-pyrimidin-4-yl]-piperazin-1-yl}-ethyl)-cyclohexyl]-acetamide] showed a Ki in data set [1] of under 10 nM. In addition, in data set [2], the “D2/D3 (Ki (D2L)/Ki (D3))” value is “+++ (+++>50)”. Further, in data set [3], the “Rat mCl” value is given as “+ (+: 20-120 μl min^−1 mg^−1)”. Also, the “Human mCl” value in data set [4] is given as “+ (+: 20-120 μl min^−1 mg^−1)”. The same molecule gave an IC50 on hERG cardiac K+ channel of over 10000 nM.
In turn, `COCCc1cc(N2CCN(CC[C@H]3CC[C@H](NC(C)=O)CC3)C[C@H]2C)nc(C(C)(C)C)n1` [Compound 6, trans-N-[4-(2-{(3R)-4-[2-tert-Butyl-6-(2-methoxy-ethyl)-pyrimidin-4-yl]-3-methyl-piperazin-1-yl}-ethyl)-cyclohexyl]-acetamide] returned a Ki in data set [1] of under 10 nM. Besides, the “D2/D3 (Ki (D2L)/Ki (D3))” value in data set [2] is given as “+++ (+++>50)”. Further, the “Rat mCl” value in data set [3] is “∘ (∘: >120 μl min^−1 mg^−1)”. In data set [4], the “Human mCl” value is listed as “+ (+: 20-120 μl min^−1 mg^−1)”. For the same molecule, the IC50 on hERG cardiac K+ channel is over 10000 nM.
The molecule `COCCc1cc(N2CCN(CC[C@H]3CC[C@@H](NC(C)=O)CC3)[C@@H](C)C2)nc(C(C)(C)C)n1` [Compound 7, cis-N-[4-(2-{(2S)-4-[2-tert-Butyl-6-(2-methoxy-ethyl)-pyrimidin-4-yl]-2-methyl-piperazin-1-yl}-ethyl)-cyclohexyl]-acetamide] came in with a Ki in data set [1] of under 10 nM. In addition, the “D2/D3 (Ki (D2L)/Ki (D3))” value in data set [2] is given as “+++ (+++>50)”. In data set [3], the “Rat mCl” value is recorded as “+ (+: 20-120 μl min^−1 mg^−1)”. Besides, in data set [4], the “Human mCl” value is reported as “+ (+: 20-120 μl min^−1 mg^−1)”. The same molecule came in with an IC50 on hERG cardiac K+ channel of over 10000 nM.
`COCCc1cc(N2CCN(CC[C@H]3CC[C@H](NC(C)=O)CC3)[C@@H](C)C2)nc(C(C)(C)C)n1` [Compound 9, trans-N-[4-(2-{(2S)-4-[2-tert-Butyl-6-(2-methoxy-ethyl)-pyrimidin-4-yl]-2-methyl-piperazin-1-yl}-ethyl)-cyclohexyl]-acetamide] came in with a Ki in data set [1] of under 10 nM. Further, the “D2/D3 (Ki (D2L)/Ki (D3))” value in data set [2] is “+++ (+++>50)”. For the same molecule, the “Rat mCl” value in data set [3] was “+ (+: 20-120 μl min^−1 mg^−1)”. Further, in data set [4], the “Human mCl” value is given as “+ (+: 20-120 μl min^−1 mg^−1)”. Moreover, on hERG cardiac K+ channel, the IC50 is over 10000 nM.
For `COCCc1cc(N2CCN(CC[C@H]3CC[C@H](NC=O)CC3)CC2)nc(C(C)(C)C)n1` [Compound 11, trans-N-[4-(2-{4-[2-tert-Butyl-6-(2-methoxy-ethyl)-pyrimidin-4-yl]-piperazin-1-yl}-ethyl)-cyclohexyl]-formamide], the Ki in data set [1] was under 10 nM. For the same molecule, the “D2/D3 (Ki (D2L)/Ki (D3))” value in data set [2] was “+++ (+++>50)”. In addition, the “Rat mCl” value in data set [3] was “+ (+: 20-120 μl min^−1 mg^−1)”. Besides, the “Human mCl” value in data set [4] is “+ (+: 20-120 μl min^−1 mg^−1)”. Besides, on hERG cardiac K+ channel, the IC50 was over 10000 nM.
The molecule `CC(=O)N[C@H]1CC[C@H](CCN2CCN(c3cc(CCO)nc(C(C)(C)C)n3)CC2)CC1` [Compound 13, trans-N-[4-(2-{4-[2-tert-Butyl-6-(2-hydroxy-ethyl)-pyrimidin-4-yl]-piperazin-1-yl}-ethyl)-cyclohexyl]-acetamide] showed a Ki in data set [1] of under 10 nM. The “D2/D3 (Ki (D2L)/Ki (D3))” value in data set [2] is recorded as “+++ (+++>50)”. Further, the “Rat mCl” value in data set [3] is recorded as “+ (+: 20-120 μl min^−1 mg^−1)”. For the same molecule, in data set [4], the “Human mCl” value is given as “+ (+: 20-120 μl min^−1 mg^−1)”. Also, the IC50 at hERG cardiac K+ channel is over 10000 nM.
In turn, `CC(=O)N[C@H]1CC[C@H](CCN2CCN(c3cc(CCOC(F)F)nc(C(C)(C)C)n3)[C@@H](C)C2)CC1` [Compound 32, trans-N-[4-[2-[(3S)-4-[2-tert-butyl-6-[2-(difluoromethoxy)ethyl]pyrimidin-4-yl]-3-methyl-piperazin-1-yl]ethyl]cyclohexyl]acetamide] showed a Ki in data set [1] of under 10 nM. Moreover, the “D2/D3 (Ki (D2L)/Ki (D3))” value in data set [2] is reported as “+++ (+++>50)”. Also, the “Rat mCl” value in data set [3] is recorded as “∘ (∘: >120 μl min^−1 mg^−1)”. Besides, the “Human mCl” value in data set [4] is “+ (+: 20-120 μl min^−1 mg^−1)”.
“trans-N-[4-[2-[4-(2-tert-butyl-6-tetrahydrofuran-3-yl-pyrimidin-4-yl)piperazin-1-yl]ethyl]cyclohexyl]formamide [Compound 27]” yielded a Ki in data set [1] of under 10 nM. The “D2/D3 (Ki (D2L)/Ki (D3))” value in data set [2] is “+++ (+++>50)”. For the same molecule, the “Rat mCl” value in data set [3] is “+ (+: 20-120 μl min^−1 mg^−1)”. Moreover, the “Human mCl” value in data set [4] was “+ (+: 20-120 μl min^−1 mg^−1)”.
